Target: T1, TRPV2 (Homo sapiens, UniProt Q9Y5S1)
T1 construct: host or cells: HEK TRex293
T1 sequence (Q9Y5S1 1-764): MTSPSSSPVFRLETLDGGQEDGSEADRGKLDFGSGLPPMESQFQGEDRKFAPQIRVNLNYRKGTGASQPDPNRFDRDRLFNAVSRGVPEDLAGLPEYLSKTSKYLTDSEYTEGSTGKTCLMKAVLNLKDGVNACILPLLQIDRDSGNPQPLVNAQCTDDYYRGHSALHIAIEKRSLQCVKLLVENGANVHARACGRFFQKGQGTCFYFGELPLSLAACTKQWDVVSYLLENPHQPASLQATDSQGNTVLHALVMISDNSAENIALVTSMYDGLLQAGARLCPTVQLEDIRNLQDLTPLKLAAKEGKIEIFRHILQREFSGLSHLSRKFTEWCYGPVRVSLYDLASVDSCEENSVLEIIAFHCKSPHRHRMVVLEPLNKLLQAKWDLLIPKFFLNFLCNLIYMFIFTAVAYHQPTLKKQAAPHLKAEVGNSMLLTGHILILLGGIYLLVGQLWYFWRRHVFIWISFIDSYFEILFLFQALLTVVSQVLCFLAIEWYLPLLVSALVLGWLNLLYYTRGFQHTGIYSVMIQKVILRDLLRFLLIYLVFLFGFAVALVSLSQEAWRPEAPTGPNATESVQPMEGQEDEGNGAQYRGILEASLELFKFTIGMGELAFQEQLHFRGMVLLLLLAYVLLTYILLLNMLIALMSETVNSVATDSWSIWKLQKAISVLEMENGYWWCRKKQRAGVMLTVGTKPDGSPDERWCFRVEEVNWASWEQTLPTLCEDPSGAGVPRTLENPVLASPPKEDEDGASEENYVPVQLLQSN
Experiment: Bulk calcium assay (Fluo-4) in HEK cells overexpressing TRPV2
Type: cell-based
Procedure: HEK TRexTRPV1 were cultured in DMEM, 10% Fetal Bovine Serum, 2 mM Lglutamine, 10 μg/ml Blasticidin (Calbiochem, San Diego Calif.), 400 μg/ml Zeocin (InvivoGen, San Diego Calif.), where indicated transgene expression was induced using 1 μg/ml Tetracycline for 16-24 hrs. Unless otherwise indicated, basal expression of TRPV1 without induction was sufficient for these studies, and comparisons were made to untransfected HEK where needed. HEKTRex293 over-expressing human TRPV2, human TRPA1 and human TRPM8 were obtained from SB Drug Discovery (Glasgow, Scotland) and cultured as described above. The cannabinoids and terpenes were assayed in HEK cells that have been transfected with the TRPV1 ion channel protein. These cells are called HEK293-V1 cells.
Cells were washed and incubated with 0.2 micromolar Fluo-4 for 30 minutes at 37° C. in a standard modified Ringer's solution of the following composition (in mM): NaCl 145, KCl 2.8, CsCl 10, CaCl2 10, MgCl2 2, glucose 10, Hepes·NaOH 10, pH 7.4, 330 mOsm. Cells were transferred to 96-well plates at 50,000 cells/well and stimulated as indicated. Calcium signals were acquired using a Flexstation 3 (Molecular Devices, Sunnydale, USA). Data was analyzed using SoftMax® Pro 5 (Molecular Devices). Where indicated, nomically calcium-free external conditions were achieved by the preparation of 0 mM CaCl2 Ringer solution containing 1 mM EGTA.
Calcium responses mediated by TRPA1, TRPM8, TRPV2, and TRPV1 were tested by calcium assay in the cell culture system. Cells were washed and incubated with 0.2 μM fluo-4 acetoxymethyl ester (“Fluo-4”) for 30 minutes at 37° C. in a standard modified Ringer's solution of the following composition (in mM): NaCl 145, KCl 2.8, CsCl 10, CaCl2 10, MgCl2 2, glucose 10, Hepes·NaOH 10, pH 7.4, 330 mOsm. Cells were transferred to 96-well plates at 50,000 cells/well and stimulated with 10 μM myrcene diluted in DMSO. Vehicle (DMSO) was used as a negative control. Vehicle traces were subtracted from the myrcene traces for each cell line.
The potential for different cannabinoids to target specific TRP channels, or to co-target more than one channel type, are of potential therapeutic options for the treatment and management of pain. Comparison of the impacts of a variety of cannabinoid on overexpression systems for TRPV2, TRPM8, and TRPA1 were performed in a side-by-side fashion, under bulk calcium assays where the measurements with each trace representing averaged triplicates of 100,000 cells per sample. As shown in FIGS. 41-43 and summarized in Table 3, there are clear differences in responsiveness between cannabinoids at a single channel type than between channel types to a given cannabinoid.

Q: Which “mean maximal Ca^2+ signal RFU achieved 0-180 s (SD), TRPV1” value does the source give for `C=C(C)[C@@H]1CCC(C)=C[C@H]1c1c(O)cc(CCCCC)cc1O` [CBD, Cannabidiol] here?
A: Its value is 12.53 (0.28) RFU.

Q: How did the “mean maximal Ca^2+ signal RFU achieved 0-180 s (SD), TRPV1” value turn out when `C=C(C)[C@@H]1CCC(C)=C[C@H]1c1c(O)cc(CCC)cc1O` [CBDV, Cannabidivarin] was run?
A: Its value is 13.07 (0.03) RFU.

Q: `CCCCCc1cc(O)c(C/C=C(\C)CCC=C(C)C)c(O)c1` [CBG, Cannabigerol] was tested. Which “mean maximal Ca^2+ signal RFU achieved 0-180 s (SD), TRPV1” value did it give?
A: The value was 2.19 (0.62) RFU.

Q: With `CCCCCc1cc(O)c2c(c1)OC(C)(C)c1ccc(C)cc1-2` [CBN, Cannabinol] as the compound, how does the “mean maximal Ca^2+ signal RFU achieved 0-180 s (SD), TRPV1” value read?
A: Its value is 4.03 (0.64) RFU.
